Literature values as cited in patent publication US20240358791A1, “PEPTIDES AND METHODS OF TREATING DYSTROPHY-RELATED DISORDERS USING THE SAME” (Prince Biotech, LLC, priority 2017, published 2024).

Details: IV infusion with radiation; xerostomia treatment (Kouvaria et al 2007)

For NCCCNCCSP(=O)(O)O [Amifostine], the side effects is listed as “serious side effects including fatal skin reaction”.
